The test system of data set [1] is IL-2 induced edema. Put plainly: IL-2 induced vascular leak syndrome, organ wet to dry (W/D) weight ratios. Type of data set: in vivo, rats. Conditions: for Spleen wet to dry ratio (splenic edema) / Kidney wet to dry ratio (renal edema) / Liver wet to dry ratio (hepatic edema) / Heart wet to dry weight ratio (cardiac edema) / Lung wet to dry weight ratio (pulmonary edema): agent alone, 1 uM; for Spleen wet to dry ratio (splenic edema): FIG. 1; for Kidney wet to dry ratio (renal edema): FIG. 2; for Liver wet to dry ratio (hepatic edema): FIG. 3; for Heart wet to dry weight ratio (cardiac edema): FIG. 4; for Lung wet to dry weight ratio (pulmonary edema): FIG. 5.

A further data set has as its system phalloidin poisoning. Conditions: cited from earlier work.
In data set [2] the test system is IL-2 induced edema. Put plainly: IL-2 induced vascular leak syndrome, organ wet to dry (W/D) weight ratios. Conditions: for Lung wet to dry weight ratio, effect of agent on IL-2 edema: agent 1 uM co-treatment with 10^6 U/ml IL-2, p<0.05, FIG. 5; for Heart wet to dry weight ratio, effect of agent on IL-2 edema: agent 1 uM co-treatment with 10^6 U/mml IL-2, p<0.01, FIG. 4; for Kidney wet to dry ratio, effect of agent on IL-2 edema: agent 1 uM plus 10^6 U/ml IL-2, FIG. 2; for Liver wet to dry ratio, effect of agent with IL-2: agent 1 uM plus IL-2 co-treatment, FIG. 3; for Spleen wet to dry ratio, effect of agent with IL-2: agent plus 10^6 U/ml IL-2, FIG. 1. It counts as in vivo, rats. The procedure:
(§1) 1. Assay Models: Vascular leak syndrome is induced rapidly in adult, male rats (500 g) by a continuous infusion for 1 h of 10^6 units of IL-2 (n=36). Five hours later the animals are killed and edema is quantitated by measuring wet to dry (W/D) ratios for the lungs, kidneys, liver, heart, and spleen.
(§2) 2. Controls: Animals are pretreated with 0.5 ml saline for 30 min. prior to the IL-2 infusion (n=28).
(§3) 3. Experimental Animals: Each animal is pretreated with either Phallin A (antamanide) or Phallin B (phalloidin), 20 ug/0.5 ml saline as a single bolus 30 min. prior to the infusion of IL-2 (n=24). Each animal then receives at 30 min. intervals a booster injection of 20 ug of Phallin A or Phallin B for the duration (6 h) of the experiments.

Data set [3] has as its system IL-2 induced edema. Nature of the data set: IL-2 induced vascular leak syndrome, protein concentration of bronchoalveolar lavage fluid. Type of data set: in vivo, rats. Conditions: agent 1 uM and 10^6 U/ml Interleukin-2, compared with 10^6 U/ml Interleukin-2 alone, FIG. 6. The procedure:
as §1, §2, §3
4. Protein Analysis: Samples obtained by bronchoalveolar lavage are quantitated for protein concentration as another means of determining the relative loss of barrier integrity in the experimental animals compared to controls.

Another data set has as its system mice or rats. Conditions: high dose levels, intramuscularly; cited from earlier work.
For a further data set, the system named is albino mice. Conditions: intramuscularly; cited from earlier work.

Residues, ends and D or L forms follow the SMILES beside them.

Data on two compounds can be found in patent US5278143A, “Prophylactic and therapeutic methods for treating interleukin-mediated edemas” (Trustees of Boston University, priority 1991, dated 1994).

Regarding `CC(C)[C@@H]1NC(=O)[C@H](Cc2ccccc2)NC(=O)[C@H](Cc2ccccc2)NC(=O)[C@@H]2CCCN2C(=O)[C@@H]2CCCN2C(=O)[C@H](Cc2ccccc2)NC(=O)[C@H](Cc2ccccc2)NC(=O)[C@H](C)NC(=O)[C@@H]2CCCN2C(=O)[C@@H]2CCCN2C1=O` [antamanide] (cyclo(AFFPPFFVPP)), in the data set with IL-2 induced edema [1], the “Spleen wet to dry ratio (splenic edema)” value was “did not produce any significant splenic edema”, the “Kidney wet to dry ratio (renal edema)” value is “did not produce any significant renal edema”, the “Liver wet to dry ratio (hepatic edema)” value is “did not produce any significant hepatic edema” and the “Heart wet to dry weight ratio (cardiac edema)” value is listed as “did not produce any significant cardiac edema”. In addition, the “Lung wet to dry weight ratio (pulmonary edema)” value in the data set on IL-2 induced edema [1] is listed as “did not produce any significant pulmonary edema”. In addition, the “Spleen wet to dry ratio, effect of agent with IL-2” value (from here on “Spleen wet to dry ratio, effect”) in the data set with IL-2 induced edema [1] (agent plus 10^6 U/ml IL-2, FIG. 1, listed as Phallin A) is recorded as “appear unaffected”. Besides, the “toxicity of the substance itself” value in the data set with phalloidin poisoning (in vivo) was “completely non-toxic of itself”. Moreover, in the data set on phalloidin poisoning (therapeutic doses), the “effect on toxic effects of fatal doses of phalloidin” value is reported as “capable of actually annulling the toxic effects of fatal doses of phalloidin”. For the same compound, in the data set with IL-2 induced edema [2], the “Lung wet to dry weight ratio, effect of agent on IL-2 edema” value (from here on “Lung wet to dry weight ratio, effect”) was “significantly reduced”; the “Heart wet to dry weight ratio, effect of agent on IL-2 edema” value (shortened to “Heart wet to dry weight ratio, effect”) is “significantly reduced”; the “Kidney wet to dry ratio, effect of agent on IL-2 edema” value (“Kidney wet to dry ratio, effect” for short) is “signnificantly improved (p<0.05)”; the “Liver wet to dry ratio, effect of agent with IL-2” value (from here on “Liver wet to dry ratio, effect”) is “No significant change in wet/dry weight ratio”. Besides, in the data set with IL-2 induced edema [2], the “Spleen wet to dry ratio, effect” value is “remained unmodified”. In the data set with IL-2 induced edema [2] (listed as Phallin A), the “Lung wet to dry weight ratio, effect” value is listed as “prevented IL-2 induced edema”; the “Heart wet to dry weight ratio, effect” value is recorded as “prevented IL-2 induced edema”; the “Kidney wet to dry ratio, effect” value is listed as “prevented IL-2 induced edema”; the “Liver wet to dry ratio, effect” value is listed as “appear unaffected”. Further, the “Protein concentration in bronchoalveolar lavage fluid” value in the data set with IL-2 induced edema [3] was “drastically reduced the accumulation and concentration of protein”.
With Phalloidin, in the data set on mice or rats, the time to death result is given as “death of mice or rats within one or two hours”. For the same compound, in the data set with IL-2 induced edema [1], the “Spleen wet to dry ratio (splenic edema)” value is recorded as “did not produce any significant splenic edema”, the “Kidney wet to dry ratio (renal edema)” value is listed as “did not produce any significant renal edema”, the “Liver wet to dry ratio (hepatic edema)” value was “did not produce any significant hepatic edema” and the “Heart wet to dry weight ratio (cardiac edema)” value is given as “did not produce any significant cardiac edema”. Also, the “Lung wet to dry weight ratio (pulmonary edema)” value in the data set on IL-2 induced edema [1] is listed as “did not produce any significant pulmonary edema”. In the data set on IL-2 induced edema [2], the “Lung wet to dry weight ratio, effect” value is listed as “significantly reduced”; the “Heart wet to dry weight ratio, effect” value was “significantly reduced”; the “Kidney wet to dry ratio, effect” value is recorded as “significantly (p<0.05) worsened”; the “Liver wet to dry ratio, effect” value is recorded as “produced significant (p<0.05) edema”. In addition, the “Spleen wet to dry ratio, effect” value in the data set with IL-2 induced edema [2] is recorded as “remained unmodified”. For the same compound, in the data set on IL-2 induced edema [2] (listed as Phallin B), the “Lung wet to dry weight ratio, effect” value was “decreases IL-2 induced edema”; the “Heart wet to dry weight ratio, effect” value is on record as “decreases IL-2 induced edema”; the “Kidney wet to dry ratio, effect” value is listed as “apparently produces edema”; the “Liver wet to dry ratio, effect” value is reported as “apparently produces edema”. Further, in the data set with IL-2 induced edema [3], the “Protein concentration in bronchoalveolar lavage fluid” value was “drastically reduced the accumulation and concentration of protein”. Also, the LD50 dose with albino mice was 3.3 micrograms per gram of body weight.
